Where two headings read alike, the source gives them in different places.
Tests used:
[1] = biological target: AChE (Homo sapiens, UniProt P22303); experiment: biochemical; assay type: biochemical; details: for Selectivity Index: AChE and BuChE IC50 values
Experimental: (§1) The inhibition of AChE and BChE was determined using a method described earlier. Briefly, the stock solutions (1 mg/mL) of test analogues were prepared using DMSO. The working solutions (1–100 μg/mL) were prepared using serial dilutions (a serial dilution means a series of diluted solutions, e.g., 0.1 mg/mL, 0.2 mg/mL and so on; the solutions contained 5% DMSO and 95% water). The various concentrations of test compounds (10 μL) were pre-incubated with sodium phosphate buffer (0.1 M; pH 8.0; 150 μL) and AChE (0.1 U/mL; 20 μL) for 15 min at 25 °C. The reaction was initiated via the addition of DTNB (1 mM; 10 μL) and […] (1 mM; 10 μL). The mixture of reaction was mixed using a cyclomixer and incubated for 10 min at 25 °C. The absorbance was measured using a microplate reader at a 410 nm wavelength against the blank reading containing 10μL DMSO instead of the test compound (the solution contained 5% DMSO and 95% water).
(§2) % Inhibition = (Absorbance of control—Absorbance of compound)/Absorbance of control × 100

[2] = biological target: BuChE (Homo sapiens, UniProt P06276); experiment: biochemical; assay type: biochemical
Experimental: as §1, §2

[3] = test system: brain AChE; details: similar degree of brain AChE inhibition; cited from earlier work

Chain of AChE (P22303 32-614): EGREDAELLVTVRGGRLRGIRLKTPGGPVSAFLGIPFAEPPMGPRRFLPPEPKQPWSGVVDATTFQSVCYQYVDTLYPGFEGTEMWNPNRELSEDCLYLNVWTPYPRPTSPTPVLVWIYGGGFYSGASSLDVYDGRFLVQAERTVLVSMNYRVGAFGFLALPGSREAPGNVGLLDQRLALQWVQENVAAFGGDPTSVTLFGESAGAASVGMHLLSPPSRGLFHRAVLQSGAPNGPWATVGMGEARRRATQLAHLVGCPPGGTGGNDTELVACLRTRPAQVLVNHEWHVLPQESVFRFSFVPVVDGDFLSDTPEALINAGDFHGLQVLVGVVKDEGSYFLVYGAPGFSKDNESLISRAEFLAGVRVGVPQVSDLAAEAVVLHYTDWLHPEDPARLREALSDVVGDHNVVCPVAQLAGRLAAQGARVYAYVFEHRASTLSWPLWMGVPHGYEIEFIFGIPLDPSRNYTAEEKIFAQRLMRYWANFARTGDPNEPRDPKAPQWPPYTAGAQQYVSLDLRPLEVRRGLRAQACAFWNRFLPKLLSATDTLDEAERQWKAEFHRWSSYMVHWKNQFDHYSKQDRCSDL
Chain of BuChE (P06276 29-602): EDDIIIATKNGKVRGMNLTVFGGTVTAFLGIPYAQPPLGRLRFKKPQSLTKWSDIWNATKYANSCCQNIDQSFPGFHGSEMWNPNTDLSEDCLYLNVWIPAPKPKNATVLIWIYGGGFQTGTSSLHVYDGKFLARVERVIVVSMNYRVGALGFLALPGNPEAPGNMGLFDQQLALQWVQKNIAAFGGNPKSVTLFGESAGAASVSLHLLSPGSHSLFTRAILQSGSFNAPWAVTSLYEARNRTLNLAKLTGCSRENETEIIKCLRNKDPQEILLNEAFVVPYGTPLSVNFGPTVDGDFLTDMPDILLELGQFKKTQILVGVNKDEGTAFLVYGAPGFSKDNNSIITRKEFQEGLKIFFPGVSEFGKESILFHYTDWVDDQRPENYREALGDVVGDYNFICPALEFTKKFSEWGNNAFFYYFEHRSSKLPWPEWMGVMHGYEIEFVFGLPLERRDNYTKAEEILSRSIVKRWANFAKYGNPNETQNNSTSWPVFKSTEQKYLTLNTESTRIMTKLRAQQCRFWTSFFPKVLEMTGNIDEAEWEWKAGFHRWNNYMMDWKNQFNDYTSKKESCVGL

O=[N+]([O-])c1cc(O)c(Cl)cc1-c1csc(N/N=C(/CSc2nc3ccccc3[nH]2)c2cccc(O)c2[N+](=O)[O-])n1 [compound 9, (E)-4-(2-(2-(2-((1H-benzo[d]imidazol-2-yl)thio)-1-(3-hydroxy-2-nitrophenyl)ethylidene)hydrazinyl)thiazol-4-yl)-2-chloro-5-nitrophenol]
IC50 [1]: 1.3 ± 0.1 µM
Selectivity Index [1]: 2.46
IC50 [2]: 3.2 ± 0.1 µM

CN(C)c1cc([N+](=O)[O-])c(-c2csc(N/N=C(/CSc3nc4ccccc4[nH]3)c3ccc(-c4ccccc4)cc3)n2)cc1O [compound 10, (E)-5-(2-(2-(2-((1H-benzo[d]imidazol-2-yl)thio)-1-([1,1’-biphenyl]-4-yl)ethylidene)hydrazinyl)thiazol-4-yl)-2-(dimethylamino)-4-nitrophenol]
IC50AChE [1]: inactivity
IC50BuChE [2]: inactivity

Cc1ccc(/C(CSc2nc3ccccc3[nH]2)=N\Nc2nc(-c3cc(Cl)c(O)cc3[N+](=O)[O-])cs2)c([N+](=O)[O-])c1 [compound 12, (E)-4-(2-(2-(2-((1H-benzo[d]imidazol-2-yl)thio)-1-(4-methyl-2-nitrophenyl)ethylidene)hydrazinyl)thiazol-4-yl)-2-chloro-5-nitrophenol]
IC50 [1]: 1.4 ± 0.1 µM
Selectivity Index [1]: 1.5
IC50 [2]: 2.1 ± 0.1 µM

Clc1ccc(/C(CSc2nc3ccccc3[nH]2)=N\Nc2nc(-c3ccc(Br)cc3)cs2)cc1Cl [compound 23, (E)-2-(2-(2-((1H-benzo[d]imidazol-2-yl)thio)-1-(3,4-dichlorophenyl)ethylidene) hydrazinyl)-4-(4-bromophenyl)thiazole]
Selectivity Index [1]: 1.43
IC50 ([1]; read-out: IC50AChE): 4.7 ± 0.1 µM
IC50 ([2]; read-out: IC50BuChE): 6.7 ± 0.1 µM

COc1ccc2c3c1O[C@H]1C[C@@H](O)C=C[C@@]31CCN(C)C2 [Galantamine]
doses needed, times greater than those of Donepezil [3]: 3–15 times

COc1cccc(-c2csc(N/N=C(/CSc3nc4ccccc4[nH]3)c3ccc(Cl)c(Cl)c3)n2)c1 [compound 20, (E)-2-(2-(2-((1H-benzo[d]imidazol-2-yl)thio)-1-(3,4-dichlorophenyl)ethylidene) hydrazinyl)-4-(3-methoxyphenyl)thiazole]
Selectivity Index [1]: 1.58
IC50 ([1]; read-out: IC50AChE): 1.2 ± 0.1 µM
IC50 ([2]; read-out: IC50BuChE): 1.9 ± 0.1 µM

Clc1ccc(-c2csc(N/N=C(/CSc3nc4ccccc4[nH]3)c3ccccc3)n2)cc1Cl [compound 6, (E)-2-(2-(2-((1H-benzo[d]imidazol-2-yl)thio)-1-phenylethylidene)hydrazinyl)-4-(3,4-dichlorophenyl)thiazole]
Selectivity Index [1]: 2.0
IC50 ([1]; read-out: IC50AChE): 0.7 ± 0.05 µM
IC50 ([2]; read-out: IC50BuChE): 1.4 ± 0.05 µM

O=[N+]([O-])c1ccccc1/C(CSc1nc2ccccc2[nH]1)=N\Nc1nc(-c2ccc(O)cc2)cs1 [compound 16, (E)-4-(2-(2-(2-((1H-benzo[d]imidazol-2-yl)thio)-1-(2-nitrophenyl)ethylidene) hydrazinyl)thiazol-4-yl)phenol]
Selectivity Index [1]: 2.5
IC50 ([1]; read-out: IC50AChE): 0.2 ± 0.05 µM
IC50 ([2]; read-out: IC50BuChE): 0.5 ± 0.05 µM

Cc1ccc(/C(CSc2nc3ccccc3[nH]2)=N\Nc2nc(-c3ccc(C)cc3)cs2)cc1 [compound 24, (E)-2-(2-(2-((1H-benzo[d]imidazol-2-yl)thio)-1-(p-tolyl)ethylidene)hydrazinyl)-4-(p-tolyl)thiazole]
Selectivity Index [1]: 1.28
IC50 ([1]; read-out: IC50AChE): 11.1 ± 0.3 µM
IC50 ([2]; read-out: IC50BuChE): 14.2 ± 0.1 µM

O=[N+]([O-])c1ccccc1/C(CSc1nc2ccccc2[nH]1)=N\Nc1nc(-c2ccc(Cl)c(Cl)c2)cs1 [compound 15, (E)-2-(2-(2-((1H-benzo[d]imidazol-2-yl)thio)-1-(2-nitrophenyl)ethylidene) hydrazinyl)-4-(3,4-dichlorophenyl)thiazole]
Selectivity Index [1]: 2.33
IC50 ([1]; read-out: IC50AChE): 0.3 ± 0.05 µM
IC50 ([2]; read-out: IC50BuChE): 0.7 ± 0.05 µM

Cc1ccc(-c2csc(N/N=C(/CSc3nc4ccccc4[nH]3)c3ccc(Cl)c(Cl)c3)n2)cc1 [compound 19, (E)-2-(2-(2-((1H-benzo[d]imidazol-2-yl)thio)-1-(3,4-dichlorophenyl)ethylidene) hydrazinyl)-4-(p-tolyl)thiazole]
Selectivity Index [1]: 0.92
IC50 ([1]; read-out: IC50AChE): 1.4 ± 0.1 µM
IC50 ([2]; read-out: IC50BuChE): 1.3 ± 0.1 µM

O=[N+]([O-])c1cc(O)c(Cl)cc1-c1csc(N/N=C(/CSc2nc3ccccc3[nH]2)c2ccccc2O)n1 [compound 2, (E)-4-(2-(2-(2-((1H-benzo[d]imidazol-2-yl)thio)-1-(2-hydroxyphenyl)ethylidene)hydrazinyl)thiazol-4-yl)-2-chloro-5-nitrophenol]
IC50 ([1]; read-out: IC50AChE): 2.3 ± 0.1 µM
IC50 ([2]; read-out: IC50BuChE): 3.2 ± 0.1 µM

COc1cccc(-c2csc(N/N=C(/CSc3nc4ccccc4[nH]3)c3ccccc3)n2)c1 [compound 4, (E)-2-(2-(2-((1H-benzo[d]imidazol-2-yl)thio)-1-phenylethylidene)hydrazinyl)-4-(3-methoxyphenyl)thiazole]
Selectivity Index [1]: 1.51
IC50 ([1]; read-out: IC50AChE): 3.5 ± 0.1 µM
IC50 ([2]; read-out: IC50BuChE): 5.3 ± 0.1 µM

O=[N+]([O-])c1ccccc1-c1csc(N/N=C(/CSc2nc3ccccc3[nH]2)c2ccc(Cl)c(Cl)c2)n1 [compound 17, (E)-2-(2-(2-((1H-benzo[d]imidazol-2-yl)thio)-1-(3,4-dichlorophenyl)ethylidene) hydrazinyl)-4-(2-nitrophenyl)thiazole]
Selectivity Index [1]: 1.64
IC50 ([1]; read-out: IC50AChE): 1.1 ± 0.05 µM
IC50 ([2]; read-out: IC50BuChE): 1.8 ± 0.1 µM

Cc1ccc(/C(CSc2nc3ccccc3[nH]2)=N\Nc2nc(-c3ccccc3[N+](=O)[O-])cs2)cc1 [compound 7, (E)-2-(2-(2-((1H-benzo[d]imidazol-2-yl)thio)-1-(p-tolyl)ethylidene)hydrazinyl)-4-(2-nitrophenyl)thiazole]
Selectivity Index [1]: 1.21
IC50 ([1]; read-out: IC50AChE): 2.9 ± 0.1 µM
IC50 ([2]; read-out: IC50BuChE): 3.5 ± 0.1 µM

Cc1ccc(/C(CSc2nc3ccccc3[nH]2)=N\Nc2nc(-c3ccc(Cl)c(Cl)c3)cs2)cc1 [compound 11, (E)-2-(2-(2-((1H-benzo[d]imidazol-2-yl)thio)-1-(p-tolyl)ethylidene)hydrazinyl)-4-(3,4-dichlorophenyl)thiazole]
Selectivity Index [1]: 2.75
IC50 ([1]; read-out: IC50AChE): 0.4 ± 0.05 µM
IC50 ([2]; read-out: IC50BuChE): 1.1 ± 0.1 µM

Cc1ccc(-c2csc(N/N=C(/CSc3nc4ccccc4[nH]3)c3ccccc3)n2)cc1 [compound 5, (E)-2-(2-(2-((1H-benzo[d]imidazol-2-yl)thio)-1-phenylethylidene)hydrazinyl)-4-(p-tolyl)thiazole]
Selectivity Index [1]: 1.24
IC50 ([1]; read-out: IC50AChE): 8.6 ± 0.2 µM
IC50 ([2]; read-out: IC50BuChE): 10.7 ± 0.2 µM

COc1cccc(-c2csc(N/N=C(/CSc3nc4ccccc4[nH]3)c3ccccc3[N+](=O)[O-])n2)c1 [compound 14, (E)-2-(2-(2-((1H-benzo[d]imidazol-2-yl)thio)-1-(2-nitrophenyl)ethylidene) hydrazinyl)-4-(3-methoxyphenyl)thiazole]
Selectivity Index [1]: 1.35
IC50 ([1]; read-out: IC50AChE): 3.1 ± 0.1 µM
IC50 ([2]; read-out: IC50BuChE): 4.2 ± 0.1 µM

Cc1ccc(/C(CSc2nc3ccccc3[nH]2)=N\Nc2nc(-c3cccc([N+](=O)[O-])c3)cs2)cc1 [compound 8, (E)-2-(2-(2-((1H-benzo[d]imidazol-2-yl)thio)-1-(p-tolyl)ethylidene)hydrazinyl)-4-(3-nitrophenyl)thiazole]
Selectivity Index [1]: 1.25
IC50 ([1]; read-out: IC50AChE): 6.3 ± 0.1 µM
IC50 ([2]; read-out: IC50BuChE): 7.9 ± 0.1 µM

Clc1ccc(/C(CSc2nc3ccccc3[nH]2)=N\Nc2nc(-c3ccc(Cl)c(Cl)c3)cs2)cc1Cl [compound 21, (E)-2-(2-(2-((1H-benzo[d]imidazol-2-yl)thio)-1-(3,4-dichlorophenyl)ethylidene) hydrazinyl)-4-(3,4-dichlorophenyl)thiazole]
Selectivity Index [1]: 2.0
IC50 ([1]; read-out: IC50AChE): 0.1 ± 0.05 µM
IC50 ([2]; read-out: IC50BuChE): 0.2 ± 0.05 µM

Cc1ccc(-c2csc(N/N=C(/CSc3nc4ccccc4[nH]3)c3ccccc3[N+](=O)[O-])n2)cc1 [compound 13, (E)-2-(2-(2-((1H-benzo[d]imidazol-2-yl)thio)-1-(2-nitrophenyl)ethylidene) hydrazinyl)-4-(p-tolyl)thiazole]
Selectivity Index [1]: 1.59
IC50 ([1]; read-out: IC50AChE): 3.2 ± 0.1 µM
IC50 ([2]; read-out: IC50BuChE): 5.1 ± 0.1 µM

COc1ccccc1-c1csc(N/N=C(/CSc2nc3ccccc3[nH]2)c2ccc(Cl)c(Cl)c2)n1 [compound 22, (E)-2-(2-(2-((1H-benzo[d]imidazol-2-yl)thio)-1-(3,4-dichlorophenyl)ethylidene) hydrazinyl)-4-(2-methoxyphenyl)thiazole]
Selectivity Index [1]: 1.75
IC50 ([1]; read-out: IC50AChE): 0.4 ± 0.2 µM
IC50 ([2]; read-out: IC50BuChE): 0.7 ± 0.1 µM

O=[N+]([O-])c1cccc(-c2csc(N/N=C(/CSc3nc4ccccc4[nH]3)c3ccc(Cl)c(Cl)c3)n2)c1 [compound 18, (E)-2-(2-(2-((1H-benzo[d]imidazol-2-yl)thio)-1-(3,4-dichlorophenyl)ethylidene) hydrazinyl)-4-(3-nitrophenyl)thiazole]
Selectivity Index [1]: 1.71
IC50 ([1]; read-out: IC50AChE): 0.7 ± 0.05 µM
IC50 ([2]; read-out: IC50BuChE): 1.2 ± 0.1 µM

Oc1ccc(-c2csc(N/N=C(/CSc3nc4ccccc4[nH]3)c3ccccc3)n2)cc1 [compound 3, (E)-4-(2-(2-(2-((1H-benzo[d]imidazol-2-yl)thio)-1-phenylethylidene) hydrazinyl)thiazol-4-yl)phenol]
Selectivity Index [1]: 2.25
IC50 ([1]; read-out: IC50AChE): 0.8 ± 0.1 µM
IC50 ([2]; read-out: IC50BuChE): 1.8 ± 0.1 µM

Reference: article PMC9504419, “Multipotent Cholinesterase Inhibitors for the Treatment of Alzheimer’s Disease: Synthesis, Biological Analysis and Molecular Docking Study of Benzimidazole-Based Thiazole Derivatives” (Molecules, 2022)
